Assay results: patent publication US20050288307A1, “Anti-viral compounds” (priority 2002, published 2005)
Where two headings read alike, the source gives them in different places.

Legend:
CDK1/Cyclin B = CDK1/Cyclin B (Homo sapiens, UniProt P06493); experiment: CDK1/cyclin B kinase assay (GST-Rb phosphorylation);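 further: Enzyme: His-tagged CDK1/Cyclin B co-expressed in baculovirus-infected Sf9 insect cells, purified via metal-chelate chromatography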
Experimental: His-tagged CDK2/Cyclin E and CDK1/Cyclin B may be co-expressed and PKCα singularly expressed in Sf 9 insect cells infected with the appropriate baculovirus constructs. The cells are harvested two days after infection by low speed centrifugation and the proteins purified from the insect cell pellets by Metal-chelate chromatography. Briefly, the insect cell pellet is lysed in Buffer A (10 mM Tris-HCl, pH 8.0, 150 mM NaCl, 0.02% NP40 and 5 mM β-marcaptoethanol, 1 mM NaF. 1 mM Na3VO4 and Protease Inhibitors Coctail (Sigma) containing AEBSF, pepstatin A, E 64, bestatin, leupeptin) by sonication. The soluble fraction is cleared by centrifugation and loaded onto Ni-NTA-Agarose (Quiagen). Non bound proteins were washed off with 300 mM NaCl, 5-15 mM Imidazole in Buffer A and the bound proteins eluted with 250 mM Imidazole in Buffer A. The purified proteins are extensively dialyzed against Storage buffer (20 mM HEPES pH 7.4, 50 mM NaCl, 2 mM DTT, 1 mM EDTA, 1 mM EGTA, 0.02% NP40, 10% v/v Glycerol) aliquoted and stored at −70° C.

CDK2/Cyclin E = target: T1, CDK2/Cyclin E (Homo sapiens, UniProt P24941); experiment: CDK2/cyclin E kinase assay (GST-Rb phosphorylation); assay type: biochemical; conditions: Table 3; read-out: Average IC50 CDK2 cyclin E1;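 further: enzyme source: His-tagged CDK2/cyclin E complex co-expressed recombinantly in Sf9 insect cells using baculovirus constructs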
T1 construct: His; made in house; host or cells: Sf9 insect cells (baculovirus)

CDK7/cyclin H = CDK7/cyclin H (Homo sapiens, UniProt P50613); experiment: CDK7 assay (CTD peptide substrate); assay type: biochemical
Chain of CDK7/cyclin H (P50613 whole entry): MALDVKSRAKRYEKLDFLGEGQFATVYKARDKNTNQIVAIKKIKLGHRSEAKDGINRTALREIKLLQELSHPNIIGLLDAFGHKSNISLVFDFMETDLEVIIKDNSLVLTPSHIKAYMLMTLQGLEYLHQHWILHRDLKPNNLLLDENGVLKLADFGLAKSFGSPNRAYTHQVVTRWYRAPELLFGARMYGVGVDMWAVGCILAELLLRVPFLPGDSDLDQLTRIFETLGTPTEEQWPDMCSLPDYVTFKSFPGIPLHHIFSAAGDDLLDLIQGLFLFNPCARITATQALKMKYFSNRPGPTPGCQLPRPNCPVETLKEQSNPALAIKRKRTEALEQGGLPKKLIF
Chain of CDK7/cyclin H (P51946 whole entry partner): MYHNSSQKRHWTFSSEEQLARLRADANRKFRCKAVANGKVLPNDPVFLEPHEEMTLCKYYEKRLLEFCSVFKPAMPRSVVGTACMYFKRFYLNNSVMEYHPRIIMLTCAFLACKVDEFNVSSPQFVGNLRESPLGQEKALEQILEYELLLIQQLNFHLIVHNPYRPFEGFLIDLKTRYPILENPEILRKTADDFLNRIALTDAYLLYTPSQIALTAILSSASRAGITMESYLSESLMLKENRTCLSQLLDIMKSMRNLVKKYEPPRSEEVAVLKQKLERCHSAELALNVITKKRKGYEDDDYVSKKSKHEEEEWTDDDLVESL
Experimental: (§1) CTD peptide substrate (biotinyl-Ahx-(Tyr-Ser-Pro-Thr-Ser-Pro-Ser)4-NH2; 1-2 mg/mL) and recombinant human CDK7/cyclin H, CDK9/cyclin T1, or CDK9/cyclin K (0.5-2 μg) were incubated for 45 min at 30° C. in the presence of varying amounts of test compound in 20 mM MOPS pH 7.2, 25 mM β-glycerophosphate, 5 mM EGTA, 1 mM DTT, 1 mM sodium vanadate, 15 mM MgCl2, and 100 μM ATP (containing a trace amount of ^32PγATP) in a total volume of 25 μL in a 96-well microtiter plate. The reaction was stopped by placing the plate on ice for 2 min. Avidin (50 μg) was added to each well, and the plate was incubated at room temp for 30 min. The samples were transferred to a 96-well P81 filter plate, and washed (4×200 μL per well) with 75 mM phosphoric acid. Microscint 40 scintillation liquid (50 μL) was added to each well, and the amount of ^32P incorporation for each sample was measured using a Packard Topcount microplate scintillation counter.

CDK4/Cyclin D1 = CDK4/Cyclin D1 (Homo sapiens, UniProt P11802); experiment: CDK4/cyclin D1 kinase assay (GST-Rb phosphorylation); assay type: biochemical
Chain of CDK4/Cyclin D1 (P11802 whole entry, species assumed): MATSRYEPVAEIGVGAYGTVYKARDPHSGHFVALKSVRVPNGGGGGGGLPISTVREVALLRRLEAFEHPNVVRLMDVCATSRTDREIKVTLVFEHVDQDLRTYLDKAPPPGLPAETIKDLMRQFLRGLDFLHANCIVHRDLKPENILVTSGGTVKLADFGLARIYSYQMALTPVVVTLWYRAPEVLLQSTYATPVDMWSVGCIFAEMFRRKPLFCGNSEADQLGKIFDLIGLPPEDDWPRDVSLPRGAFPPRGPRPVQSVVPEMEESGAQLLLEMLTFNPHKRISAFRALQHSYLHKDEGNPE
Chain of CDK4/Cyclin D1 (P24385 whole entry partner, species assumed): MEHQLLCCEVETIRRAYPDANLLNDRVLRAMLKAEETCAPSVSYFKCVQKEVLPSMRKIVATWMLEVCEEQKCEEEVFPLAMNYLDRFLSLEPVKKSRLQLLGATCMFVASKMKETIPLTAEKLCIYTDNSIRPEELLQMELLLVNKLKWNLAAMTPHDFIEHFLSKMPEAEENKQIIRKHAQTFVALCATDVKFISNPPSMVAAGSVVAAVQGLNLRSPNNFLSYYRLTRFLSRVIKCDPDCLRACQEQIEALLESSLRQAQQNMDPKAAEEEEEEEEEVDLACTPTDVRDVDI

CDK9/cyclin T1 = CDK9/cyclin T1 (Homo sapiens, UniProt P50750); experiment: CDK9 assay (CTD peptide substrate); assay type: biochemical
Chain of CDK9/cyclin T1 (P50750 whole entry): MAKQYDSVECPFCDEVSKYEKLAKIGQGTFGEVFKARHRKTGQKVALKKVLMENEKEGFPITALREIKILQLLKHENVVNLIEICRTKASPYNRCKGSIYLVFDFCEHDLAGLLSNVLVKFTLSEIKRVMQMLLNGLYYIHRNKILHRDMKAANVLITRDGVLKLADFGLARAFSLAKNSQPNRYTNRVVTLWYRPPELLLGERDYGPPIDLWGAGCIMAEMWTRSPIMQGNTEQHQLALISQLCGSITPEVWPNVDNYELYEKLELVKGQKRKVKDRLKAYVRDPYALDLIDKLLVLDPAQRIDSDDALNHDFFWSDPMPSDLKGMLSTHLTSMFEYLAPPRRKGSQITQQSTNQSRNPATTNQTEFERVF
Chain of CDK9/cyclin T1 (O60563 whole entry partner): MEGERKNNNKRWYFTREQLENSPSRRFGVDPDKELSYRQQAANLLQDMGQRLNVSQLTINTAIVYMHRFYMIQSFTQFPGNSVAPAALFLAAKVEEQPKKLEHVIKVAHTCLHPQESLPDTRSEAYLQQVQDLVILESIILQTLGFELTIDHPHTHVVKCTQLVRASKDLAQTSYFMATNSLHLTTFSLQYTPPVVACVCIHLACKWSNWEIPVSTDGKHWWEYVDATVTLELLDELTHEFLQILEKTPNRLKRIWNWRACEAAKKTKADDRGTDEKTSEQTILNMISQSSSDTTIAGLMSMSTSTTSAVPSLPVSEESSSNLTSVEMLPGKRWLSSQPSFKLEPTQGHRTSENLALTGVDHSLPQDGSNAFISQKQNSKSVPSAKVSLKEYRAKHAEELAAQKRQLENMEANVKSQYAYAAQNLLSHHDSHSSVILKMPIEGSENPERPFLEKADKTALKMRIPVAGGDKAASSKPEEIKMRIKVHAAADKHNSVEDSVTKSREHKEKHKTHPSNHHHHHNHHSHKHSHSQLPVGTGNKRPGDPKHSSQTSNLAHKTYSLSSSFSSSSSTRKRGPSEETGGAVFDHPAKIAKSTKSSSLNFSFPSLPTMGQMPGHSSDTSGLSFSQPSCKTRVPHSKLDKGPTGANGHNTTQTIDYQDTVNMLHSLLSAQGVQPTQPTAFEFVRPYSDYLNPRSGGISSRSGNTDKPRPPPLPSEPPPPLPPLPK
Experimental: as §1

CDK2/cyclin A = CDK2/cyclin A (Homo sapiens, UniProt P24941); experiment: CDK2/cyclin A kinase assay; assay type: biochemical; conditions: Table 3; read-out: Average IC50 CDK2 cyclin A2;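 further: Read-out is incorporated radioactivity retained on P81 filter plates and quantified by scintillation counting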
Experimental: Reactions were stopped on ice, followed by filtration through p81 filterplates (Whatman Polyfiltronics, Kent, UK). After washing 3 times with 75 mM orthophosphoric acid, plates were dried, scintillant added and incorporated radioactivity measured in a scintillation counter (TopCount, Packard Instruments, Pangboume, Berks, UK).

[1] = Table 3, read-out: Average IC50 CDK7 cyclin H
[2] = Table 3, read-out: Average IC50 CDK4 cyclin D1
[3] = Table 3, read-out: Average IC50 CDK9 cyclin T1
[4] = Table 4, read-out: Kinase Inhibition IC50 CDK7-cyclin H

Chain of CDK1/Cyclin B (P06493 whole entry, species assumed): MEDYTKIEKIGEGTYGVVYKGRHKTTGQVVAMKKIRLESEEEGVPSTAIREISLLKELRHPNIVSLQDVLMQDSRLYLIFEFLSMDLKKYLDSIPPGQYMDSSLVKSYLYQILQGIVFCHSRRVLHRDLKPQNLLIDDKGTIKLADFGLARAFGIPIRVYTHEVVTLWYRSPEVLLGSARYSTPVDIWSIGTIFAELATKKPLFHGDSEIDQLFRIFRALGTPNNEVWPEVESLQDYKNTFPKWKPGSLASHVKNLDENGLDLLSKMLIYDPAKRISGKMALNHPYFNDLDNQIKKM
Chain of CDK1/Cyclin B (P14635 whole entry partner, species assumed): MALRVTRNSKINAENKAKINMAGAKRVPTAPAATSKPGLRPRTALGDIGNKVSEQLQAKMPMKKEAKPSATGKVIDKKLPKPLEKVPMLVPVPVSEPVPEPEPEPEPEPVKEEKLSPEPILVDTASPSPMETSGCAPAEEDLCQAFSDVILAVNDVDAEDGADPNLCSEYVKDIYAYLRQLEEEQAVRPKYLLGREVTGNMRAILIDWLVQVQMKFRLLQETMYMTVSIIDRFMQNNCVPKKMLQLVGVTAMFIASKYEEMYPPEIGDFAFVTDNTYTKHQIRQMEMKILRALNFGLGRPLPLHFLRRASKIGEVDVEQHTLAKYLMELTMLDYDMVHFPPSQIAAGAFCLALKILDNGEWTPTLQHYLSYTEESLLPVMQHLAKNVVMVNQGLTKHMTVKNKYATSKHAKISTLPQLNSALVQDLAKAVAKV

Row | SMILES | IC50 (CDK1/Cyclin B) [µM] | IC50 (CDK2/Cyclin E) [µM] | IC50 (CDK7/cyclin H; [1]) [µM] | IC50 (CDK4/Cyclin D1; [2]) [µM] | other results
1 | Cc1nc(C)c(-c2ccnc(Nc3cccc(Cl)c3)n2)s1 [Compound 3, (3-Chloro-phenyl)-[4-(2,4-dimethyl-thiazol-5-yl)-pyrimidin-2-yl]-amine] | 32 | 5.6 | > 100 | > 50 | 
2 | Cc1nc(C)c(-c2ccnc(Nc3ccc(F)cc3)n2)s1 [Compound 8, [4-(2,4-Dimethyl-thiazol-5-yl)-pyrimidin-2-yl]-(4-fluoro-phenyl)-amine] | 17 |  | 16 |  | IC50 (CDK9/cyclin T1; [3]): 0.31 µM
3 | Cc1nc(C)c(-c2ccnc(Nc3cccc(O)c3)n2)s1 [Compound 27, 3-[4-(2,4-Dimethyl-thiazol-5-yl)-pyrimidin-2-ylamino]-phenol] | 1.2 |  | 3.2 |  | IC50 (CDK9/cyclin T1; [3]): 0.24 µM
4 | Cc1nc(C)c(-c2ccnc(Nc3ccc(O)c([N+](=O)[O-])c3)n2)s1 [Compound 32, 4-[4-(2,4-Dimethyl-thiazol-5-yl)-pyrimidin-2-ylamino]-2-nitro-phenol] | 14 |  |  | 0.38 | IC50 (CDK9/cyclin T1; [3]): 0.055 µM
5 | Cc1nc(C)c(-c2ccnc(Nc3ccc(C#N)cc3)n2)s1 [Compound 35, 4-[4-(2,4-Dimethyl-thiazol-5-yl)-pyrimidin-2-ylamino]-benzonitrile] | > 50 | 8 |  | > 50 | 
6 | COC(=O)c1ccc(Nc2nccc(-c3sc(C)nc3C)n2)cc1 [Compound 37, 4-[4-(2,4-Dimethyl-thiazol-5-yl)-pyrimidin-2-ylamino]-benzoic acid methyl ester] | 38 | 7.5 |  | 17 | 
7 | COc1ccc(Nc2nccc(-c3sc(C)nc3C)n2)cc1Cl [Compound 39, (3-Chloro-4-methoxy-phenyl)-[4-(2,4-dimethyl-thiazol-5-yl)-pyrimidin-2-yl]-amine] | 40 | 5.6 |  | > 50 | 
8 | CNc1nc(C)c(-c2ccnc(Nc3ccc(O)cc3)n2)s1 [Compound 48, 4-[4-(4-Methyl-2-methylamino-thiazol-5-yl)-pyrimidin-2-ylamino]-phenol] |  |  | 0.86 |  | IC50 (CDK9/cyclin T1; [3]): 0.076 µM
9 | Cc1nc(N)sc1-c1ccnc(Nc2ccc(O)cc2)n1 [Compound 98, 4-[4-(2-Amino-4-methyl-thiazol-5-yl)-pyrimidin-2-ylamino]-phenol] |  |  | 1 |  | IC50 (CDK9/cyclin T1; [3]): 0.045 µM
10 | Cc1nc(C)c(-c2ccnc(Nc3cccc(NC(=N)N)c3)n2)s1 [Compound 99, N-{3-[4-(2,4-Dimethyl-thiazol-5-yl)-pyrimidin-2-ylamino]-phenyl}-guanidine] |  |  | 0.31 |  | IC50 (CDK9/cyclin T1; [3]): 0.26 µM
11 | Cc1nc(C)c(-c2ccnc(Nc3ccc([N+](C)(C)C)cc3)n2)s1 [Compound 104, {4-[4-(2,4-Dimethyl-thiazol-5-yl)-pyrimidin-2-ylamino]-phenyl}-trimethyl-ammonium] |  |  | 0.39 |  | IC50 (CDK9/cyclin T1; [3]): 0.14 µM
12 | COc1cccc(Nc2nccc(-c3sc(N)nc3C)n2)c1 [Compound 108, [4-(2-Amino-4-methyl-thiazol-5-yl)-pyrimidin-2-yl]-(3-methoxy-phenyl)-amine] | 2.8 | 0.39 |  | 1.5 | IC50 (CDK2/cyclin A): 0.91 µM
13 | Cc1nc(N)sc1-c1ccnc(Nc2cccc(F)c2)n1 [Compound 109, [4-(2-Amino-4-methyl-thiazol-5-yl)-pyrimidin-2-yl]-(3-fluoro-phenyl)-amine] | 2.9 | 0.38 |  | 1.2 | IC50 (CDK2/cyclin A): 1.4 µM
14 | Cc1nc(N)sc1-c1ccnc(Nc2ccc(C(F)(F)F)cc2)n1 [Compound 110, [4-(2-Amino-4-methyl-thiazol-5-yl)-pyrimidin-2-yl]-(4-trifluoromethyl-phenyl)-amine] |  | 0.68 |  | 5.8 | 
15 | Cc1nc(N)sc1-c1ccnc(Nc2cccc(Cl)c2)n1 [Compound 112, [4-(2-Amino-4-methyl-thiazol-5-yl)-pyrimidin-2-yl]-(3-chloro-phenyl)-amine] |  | 0.018 |  | 0.071 | 
16 | Cc1nc(N)sc1-c1ccnc(Nc2cccc(I)c2)n1 [Compound 113, [4-(2-Amino-4-methyl-thiazol-5-yl)-pyrimidin-2-yl]-(3-iodo-phenyl)-amine] |  |  | 0.59 |  | 

Row | SMILES | IC50 (CDK1/Cyclin B) [µM] | IC50 (CDK2/Cyclin E) [µM] | IC50 (CDK7/cyclin H; [1]) [µM] | IC50 (CDK4/Cyclin D1; [2]) [µM] | other results
17 | Cc1nc(N)sc1-c1ccnc(Nc2ccc(Br)cc2)n1 [Compound 120, [4-(2-Amino-4-methyl-thiazol-5-yl)-pyrimidin-2-yl]-(4-bromo-phenyl)-amine] |  | 1 |  | 1.6 | 
18 | CCN(CC)CCOc1ccc(Nc2nccc(-c3sc(C)nc3C)n2)cc1 [Compound 122, [4-(2-Diethylamino-ethoxy)-phenyl]-[4-(2,4-dimethyl-thiazol-5-yl)-pyrimidin-2-yl]-amine] |  |  | 0.44 |  | 
19 | Cc1nc(C)c(-c2ccnc(Nc3ccc(CCO)cc3)n2)s1 [Compound 123, 2-{4-[4-(2,4-Dimethyl-thiazol-5-yl)-pyrimidin-2-ylamino]-phenyl}-ethanol] | 1.9 | 0.47 |  | 3.3 | IC50 (CDK2/cyclin A): 0.57 µM
20 | CCN(CCO)c1ccc(Nc2nccc(-c3sc(C)nc3C)n2)cc1 [Compound 124, 2-({4-[4-(2,4-Dimethyl-thiazol-5-yl)-pyrimidin-2-ylamino]-phenyl}-ethyl-amino)-ethanol] | 8.6 | 3 |  | 6.7 | IC50 (CDK2/cyclin A): 3.7 µM
21 | COc1ccc(Nc2nccc(-c3sc(C)nc3C)n2)cc1O [Compound 126, 5-[4-(2,4-Dimethyl-thiazol-5-yl)-pyrimidin-2-ylamino]-2-methoxy-phenol] | 1.6 | 0.14 |  | 1.7 | IC50 (CDK9/cyclin T1; [3]): 1.3 µM; IC50 (CDK2/cyclin A): 0.31 µM
22 | Cc1nc(C)c(-c2ccnc(Nc3ccc(N(C)C)c([N+](=O)[O-])c3)n2)s1 [Compound 127, N^4-[4-(2,4-Dimethyl-thiazol-5-yl)-pyrimidin-2-yl]-N^1,N^1-dimethyl-2-nitro-benzene-1,4-diamine] | 0.13 |  | 1.5 |  | 
23 | CCNc1nc(C)c(-c2ccnc(Nc3cccc(OC)c3)n2)s1 [Compound 136, [4-(2-Ethylamino-4-methyl-thiazol-5-yl)-pyrimidin-2-yl]-(3-methoxy-phenyl)-amine] | > 100 | 6.8 |  |  | IC50 (CDK2/cyclin A): 39 µM
24 | CCNc1nc(C)c(-c2ccnc(Nc3ccc(C)c([N+](=O)[O-])c3)n2)s1 [Compound 138, [4-(2-Ethylamino-4-methyl-thiazol-5-yl)-pyrimidin-2-yl]-(4-methyl-3-nitro-phenyl)-amine] | 41 | 2.7 |  |  | IC50 (CDK2/cyclin A): 9.5 µM
25 | CCCCNc1nc(C)c(-c2ccnc(Nc3ccc(F)cc3)n2)s1 [Compound 139, [4-(2-Butylamino-4-methyl-thiazol-5-yl)-pyrimidin-2-yl]-(4-fluoro-phenyl)-amine] | 47 | 1.7 |  | 30 | IC50 (CDK9/cyclin T1; [3]): 23 µM; IC50 (CDK2/cyclin A): 25 µM
26 | Cc1nc(N(C)C)sc1-c1ccnc(Nc2ccc(Cl)cc2)n1 [Compound 141, (4-Chloro-phenyl)-[4-(2-dimethylamino-4-methyl-thiazol-5-yl)-pyrimidin-2-yl]-amine] |  | 3.9 |  | 4.8 | 
27 | Cc1nc(N(C)C)sc1-c1ccnc(Nc2ccc(F)cc2)n1 [Compound 142, [4-(2-Dimethylamino-4-methyl-thiazol-5-yl)-pyrimidin-2-yl]-(4-fluoro-phenyl)-amine] |  | 1.3 |  | 4 | 
28 | Cc1nc(N(C)C)sc1-c1ccnc(Nc2cccc(Cl)c2)n1 [Compound 143, (3-Chloro-phenyl)-[4-(2-dimethylamino-4-methyl-thiazol-5-yl)-pyrimidin-2-yl]-amine] |  | 0.89 |  | 5.4 | 
29 | Cc1nc(N)sc1-c1ccnc(Nc2ccc([N+](=O)[O-])cc2)n1 [Compound 151, [4-(2-Amino-4-methyl-thiazol-5-yl)-pyrimidin-2-yl]-(4-nitro-phenyl)-amine] |  | 0.18 |  | > 50 | 
30 | COc1ccc(Nc2nccc(-c3sc(=O)n(C)c3C)n2)cc1 [Compound 157, 5-[2-(4-Methoxy-phenylamino)-pyrimidin-4-yl]-3,4-dimethyl-3H-thiazol-2-one] | 0.78 |  |  |  | IC50 (CDK7/cyclin H; [4]): 2 µM
31 | Cc1c(-c2ccnc(Nc3ccc(N(C)C)cc3)n2)sc(=O)n1C [Compound 164, 5-[2-(4-Dimethylamino-phenylamino)-pyrimidin-4-yl]-3,4-dimethyl-3H-thiazol-2-one] | 2.2 |  |  |  | IC50 (CDK9/cyclin T1; Table 4, read-out: Kinase Inhibition IC50 CDK9-cyclin T1): 0.13 µM; IC50 (CDK7/cyclin H; [4]): 1.8 µM; IC50 (CDK4/Cyclin D1; Table 4, read-out: Kinase Inhibition IC50 CDK4-cyclin D1): 1 µM
